From paper PMC8765048 (JCI Insight, 2022)
Where two headings read alike, the source gives them in different places.

Columns and labels:
[1] = tested on: Lassa virus, Ebola virus, Marburg virus, cowpox virus and vaccinia virus; conditions: Vero E6 and Huh-7 cells; cited from earlier work
[2] = 24-hour plasma pharmacokinetics in CD-1 laboratory mice; format: in vivo, mouse; conditions: for apparent volume of distribution / total clearance / area under the curve to the last time point / Cmax: CD-1 mice, i.p. 60 mg/kg; for area under the curve to the last time point: 24 h; for Cmax: mouse, plasma, ip
Method: We next evaluated the 24-hour pharmacokinetics (PK) of sangivamycin in CD-1 laboratory mouse plasma. Sangivamycin’s plasma concentrations increased following i.p. injection of 60 mg/kg to a peak at 2 hours, then decreased over 6 or 8 hours, and remained virtually unchanged up to 24 hours after dosing. […] Graphing plasma concentration versus time produced an area under the curve to the last time point with values of 632 ± 66.6 h•ng/mL for males and 833 ± 53.9 h•ng/mL for females. […] Our data corroborate historical PK studies in mice with ^3H-labeled sangivamycin performed at the NCI in 1974 ([20]). In these studies, free nucleoside and mono-, di-, and triphosphate forms of sangivamycin were detected in blood, urine, and multiple tissues (e.g., heart, liver, brain, spleen, and kidneys) following i.p. injection of 8 mg/kg. The studies established that sangivamycin was phosphorylated after transportation into cells. In liver, heart, and brain, the predominant form of sangivamycin was sangivamycin 5′-monophosphate (SMP). […] Therefore, we determined the level of SMP in blood in our PK study using a published liquid chromatography–tandem mass spectrometry (LC-MS/MS) method with a lower limit of quantification of 1 ng/mL ([33]). Using this method, we detected SMP in the plasma of dosed mice but not control mice (Supplemental Figure 9B). The apparent levels of SMP increased in blood during the 24 hours of this study. There also was possible presence of a diphosphate metabolite of sangivamycin, but it was detected only in the plasma samples taken 24 hours after dosing.

[3] = CellTiter-Glo cell viability assay; format: cell-based; conditions: human, A549 cells; A549, 72 h
SARS-CoV-2 WA1 [4] = assay: microbe, parasite or virus in culture; format: cell-based; conditions: Severe acute respiratory syndrome coronavirus 2, Caco-2, 96 h
[5] = tested on: SARS-CoV-2 B.1.617.2 (Delta); assay: microbe, parasite or virus in culture; format: cell-based
SARS-CoV-2 P.1 (Gamma) = assay: microbe, parasite or virus in culture; format: cell-based
KCNH2 (hERG) = molecular target: T1, KCNH2 (hERG) (Homo sapiens, UniProt Q12809); assay: Potassium channel inhibition testing (QPatch HTX electrophysiology); format: cell-based
T1 construct: expressed in transfected cells; host or cells: HEK293T
Text: The KCNH2 (hERG) functions as the α subunit of a cardiac potassium channel. Its inhibition by drugs has been implicated in fatal ventricular tachyarrhythmia ([31]). As a predictor of cardiotoxicity and genotoxicity, we therefore evaluated KCNH2 (hERG) inhibition and genotoxicity in the AMES mutagenicity assay.
Ruling out inhibition of KCNH2 (hERG) by a novel compound is a mandatory step in establishing drug safety. The effect of sangivamycin on KCNH2-derived cardiac potassium channels was assessed using HEK293T cells and the QPatch HTX electrophysiology platform (Evotech), following the manufacturer’s instructions. Sangivamycin was tested at 6 concentrations (cumulative concentration response, high test concentration of 10 μM). The percentage change in potassium channel tail current was used to calculate channel inhibition.

[6] = tested on: SARS-CoV-2 B.1.429 (Epsilon); assay: microbe, parasite or virus in culture; format: cell-based
[7] = tested on: Vero E6 (grivet kidney epithelial); assay: CellTox Green Cytotoxicity Assay; conditions: ratio > 1 cytostatic, ≤ 1 cytotoxic
SARS-CoV-2 WA1 [8] = assay: microbe, parasite or virus in culture; format: cell-based
[9] = tested on: SARS-CoV-2 B.1.427 (Epsilon); assay: microbe, parasite or virus in culture; format: cell-based
[10] = CellTiter-Glo cell viability assay, average of 8 cell types; format: cell-based; conditions: human (7 cell types) and grivet (Vero E6), average ± SEM, n = 8 cell types
multiple cell types [11] = assay: as above; format: cell-based; conditions: average ± SEM, n = 8 cell types
[12] = Metabolic stability testing, liver microsomes; format: in vitro ADME; conditions: pH 7.4, 0.5 mg/mL microsomes, NADPH
Method: To evaluate metabolic stability, sangivamycin was incubated by Cyprotex in duplicate with active and heat-inactivated human and CD-1 laboratory mouse liver microsomes (0.5 mg/mL) and cofactors (2.5 mM NADPH and 3.3 mM MgCl2) in 0.1 M phosphate buffer (pH 7.4) at 37°C. Aliquots were removed at 0, 15, 30, 60, 90, and 120 minutes, and the amount of drug remaining at each time point was determined by LC-MS/MS.

SARS-CoV-2 = assay: Combinatorial sangivamycin/remdesivir efficacy testing, Vero E6 cells; format: cell-based; conditions: read-out: IC50 (nM), S:R by [Sangivamycin]
[13] = CellTiter-Glo cell viability assay; format: cell-based; conditions: human, Huh-7 cells; Huh-7, 72 h
multiple cell types [14] = assay: CellTox Green Cytotoxicity Assay, average of 6 cell types; conditions: average ± SEM, n = 6 cell lines
[15] = CellTiter-Glo cell viability assay; format: cell-based; conditions: human, HepG2 cells; HepG2, 72 h
[16] = Severe acute respiratory syndrome coronavirus 2, VeroE6/TMPRSS2, 18 h
[17] = Severe acute respiratory syndrome coronavirus 2, Vero C1008, 24 h
[18] = Severe acute respiratory syndrome coronavirus 2, Vero C1008, 48 h

T1 sequence (Q12809 whole entry): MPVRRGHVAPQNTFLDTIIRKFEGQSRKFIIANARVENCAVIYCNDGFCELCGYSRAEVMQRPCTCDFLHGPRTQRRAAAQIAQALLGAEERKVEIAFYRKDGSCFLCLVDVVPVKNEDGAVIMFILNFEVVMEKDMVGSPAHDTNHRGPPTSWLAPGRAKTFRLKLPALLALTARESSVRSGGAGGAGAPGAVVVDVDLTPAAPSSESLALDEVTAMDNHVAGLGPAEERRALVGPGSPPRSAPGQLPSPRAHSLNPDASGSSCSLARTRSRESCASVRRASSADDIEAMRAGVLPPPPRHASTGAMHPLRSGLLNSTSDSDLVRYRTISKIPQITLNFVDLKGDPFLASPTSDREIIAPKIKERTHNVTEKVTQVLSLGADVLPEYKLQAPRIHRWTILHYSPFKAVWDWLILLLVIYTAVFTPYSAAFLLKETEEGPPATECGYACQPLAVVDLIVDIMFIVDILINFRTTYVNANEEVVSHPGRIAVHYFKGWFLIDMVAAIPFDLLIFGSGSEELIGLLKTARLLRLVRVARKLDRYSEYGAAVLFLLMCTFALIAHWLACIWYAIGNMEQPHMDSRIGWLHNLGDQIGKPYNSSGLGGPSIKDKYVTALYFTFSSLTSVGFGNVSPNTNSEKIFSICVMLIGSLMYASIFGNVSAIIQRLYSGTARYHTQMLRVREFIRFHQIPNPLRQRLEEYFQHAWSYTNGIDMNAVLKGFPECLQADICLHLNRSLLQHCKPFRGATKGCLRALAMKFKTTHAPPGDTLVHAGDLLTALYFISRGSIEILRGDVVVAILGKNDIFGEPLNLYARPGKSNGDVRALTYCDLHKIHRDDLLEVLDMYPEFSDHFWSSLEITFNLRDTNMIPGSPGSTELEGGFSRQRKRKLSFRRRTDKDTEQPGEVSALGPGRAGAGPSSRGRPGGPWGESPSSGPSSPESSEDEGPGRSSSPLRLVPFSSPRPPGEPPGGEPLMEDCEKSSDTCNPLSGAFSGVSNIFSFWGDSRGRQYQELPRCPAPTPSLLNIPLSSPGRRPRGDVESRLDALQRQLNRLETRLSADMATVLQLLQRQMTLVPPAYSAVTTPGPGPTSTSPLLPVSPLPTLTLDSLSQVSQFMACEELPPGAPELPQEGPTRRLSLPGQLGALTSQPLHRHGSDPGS

In the case of NC(=O)c1cn([C@@H]2O[C@H](CO)[C@@H](O)[C@H]2O)c2ncnc(N)c12 [Sangivamycin, sangivamycin], the IC50 [1] is given as “nanomolar range”, the “apparent volume of distribution” value ([2]; females) is given as 167,000 mL/kg and the total clearance ([2]; females) is given as 68,500 mL/h/kg. For the same molecule, the “area under the curve to the last time point” value ([2]; females) was 833 ± 53.9 ng·h/mL, the “apparent volume of distribution” value ([2]; males) was 369,000 mL/kg and the total clearance ([2]; males) was 85,400 mL/h/kg. The “area under the curve to the last time point” value ([2]; males) was 632 ± 66.6 ng·h/mL, the Cmax ([2]; female, females (285 ng/mL), read-out: Cmax, molar equivalent) was 922 nM and the Cmax ([2]; female, females, read-out: Cmax of the plasma) was 285 ± 35.9 ng/mL. The Cmax ([2]; male, males (97.3 ng/mL), read-out: Cmax, molar equivalent) was 314 nM, the Cmax ([2]; male, males, read-out: Cmax of the plasma) was 97.3 ± 31 ng/mL and the “Cmax relative to the average IC90 in the 3 cell lines tested” value ([2]; mouse plasma Cmax 314 nM and 922 nM) was 3- to 9 fold. It also gave a CC50 (in vitro) greater than 5000 nM, a CC50 at 72 h [3] of 173 nM and an IC50 (SARS-CoV-2 WA1 [4]) of 14 ± 2 nM. The IC90 (SARS-CoV-2 WA1 [4]) was 63 ± 17 nM, the IC50 [5] was 80.4 nM and the “SI (selectivity index, CC50/IC50)” value ([5]; B.1.617.2 (Delta), Vero E6/TMPRSS2 cells) was greater than 7.5. For the same molecule, the IC50 [5, 16] was 80 nM, the IC90 [5, 16] was 263 nM and the “SI (selectivity index, CC50/IC50)” value (SARS-CoV-2 P.1 (Gamma); P.1 (Gamma), Vero E6 cells) was greater than 22.2. For the same molecule, the IC50 (SARS-CoV-2 P.1 (Gamma); [17]) was 27.1 nM, the IC90 (SARS-CoV-2 P.1 (Gamma); [17]) was 245 nM and the IC50 (KCNH2 (hERG)) was greater than 10000 nM. The “effect on the KCNH2 (hERG)” value (KCNH2 (hERG); 10 μM) was “had no effect”, the “SI (selectivity index, CC50/IC50)” value ([6]; B.1.429 (Epsilon), Vero E6 cells) was greater than 8.2 and the IC50 [6, 18] was 72.8 nM. The IC90 [6, 18] was 465 nM, the “Ratio CellTox Green/CellTiter-Glo” value [7] was greater than 10.2 and the IC90 (SARS-CoV-2 WA1 [8]; [18]) was 64 ± 3 nM. For the same molecule, the IC50 (SARS-CoV-2 WA1 [8]; Severe acute respiratory syndrome coronavirus 2, Vero C1008, 48 h, read-out: IC50) was 34 ± 1 nM, the IC50 (SARS-CoV-2 WA1 [8]; Severe acute respiratory syndrome coronavirus 2, Vero C1008, read-out: average IC50) was 52 ± 13 nM and the “SI (selectivity index, CC50/IC50)” value (SARS-CoV-2 WA1 [8]; WA1, Vero E6 cells) was 14.4. For the same molecule, the “SI (selectivity index, CC50/IC50)” value ([9]; B.1.427 (Epsilon), Vero E6 cells) was greater than 32.3, the IC50 [9, 17] was 18.6 nM and the IC90 [9, 17] was 212 nM. It also gave a CC50 [10] of 617 ± 181 nM, a CC50 (multiple cell types [11]) of 607 ± 182 nM and a remaining at 2 h, 5 μM ([12]; CD-1, mouse, read-out: Mouse liver microsome stability (% remaining at 120 min)) of 100%. The remaining at 2 h, 5 μM ([12]; human, read-out: Human liver microsome stability (% remaining at 120 min)) was 100%, the IC50 (SARS-CoV-2; Severe acute respiratory syndrome coronavirus 2, Vero C1008) was 34 nM and the IC50 (SARS-CoV-2; listed as S:R 1:0) was 34.3 nM. For the same molecule, the CC50 at 72 h [13] was 487 nM, the “Ratio CellTox Green/CellTiter-Glo, Average” value (multiple cell types [14]) was greater than 12.2 ± 3.78 and the CC50 at 72 h [15] was 1770 nM.
